In publication PMC8071423, “A New Pyrimidine Schiff Base with Selective Activities against Enterococcus faecalis and Gastric Adenocarcinoma” (Molecules, 2021):
In brackets after ≈: the same amount, converted by molar mass. Read-outs that look alike come from different tables or passages of the source. Each block holds one molecule with its values, some of them ahead of it.

Columns and labels:
AGS cell line [1] = test: Microscopic observation of cell and nucleus morphology, Hoechst 33342; assay type: cell-based, human
Procedure: Morphological changes and DNA fragmentation were examined with an Olympus IX53 inverted fluorescence microscope after staining with Hoechst 33342 according to the manufacturer’s recommendations Thermo Scientific (Waltham, MA, USA). Briefly, cells were seeded in 12-well plates with a density of 1 × 10^5 cell/mL. After overnight incubation, the test substance was added in a half-maximal inhibitory (IC50) concentration and incubated for 24, 48, and 72 h. Before microscopic observation, both adherent and floating cells were collected, centrifuged, resuspended in PBS containing 1 µg/mL Hoechst 33342 dye. After 10 min incubation in the dark, the morphology of cells and DNA were visualized using a contrast phase and a UV filter.

[2] = system: Pseudomonas aeruginosa ATCC 27853; test: Antimicrobial microdilution / modified Richards method; assay type: cell-based; settings: ATCC27853; Pseudomonas aeruginosa 27853; according to the EUCAST examination; read-out: MIC (reference agent)
[3] = system: Enterococcus faecalis ATCC 29212; test: as above; assay type: cell-based
[4] = system: Streptococcus pneumoniae ATCC 49619; test: as above; assay type: cell-based; settings: ATCC49619; Streptococcus pneumoniae 49619; according to the EUCAST examination; read-out: MIC (reference agent)
[5] = system: Staphylococcus aureus ATCC 43300; test: as above; assay type: cell-based; settings: ATCC43300; Staphylococcus aureus 43300; according to the EUCAST examination; read-out: MIC (reference agent)
[6] = system: Klebsiella pneumoniae ATCC 13883; test: as above; assay type: cell-based; settings: ATCC13883; Klebsiella pneumoniae 13883; according to the EUCAST examination; read-out: MIC (reference agent)
A172 = test: Neutral red uptake assay, A172; assay type: cell-based; settings: Homo sapiens, A 172, 72 h exposure
Procedure: (§1) L-929 (mouse C3H/An connective tissue), Caco-2 (human colon adenocarcinoma), A172 (human glioblastoma), AGS (human gastric adenocarcinoma), HepaRG (human hepatoma cell), and HeLa (human cervix epithelioid carcinoma) cell lines were obtained from the European Collection of Authenticated Cell Cultures (ECACC) and provided by Sigma Aldrich/Merck (Munich, Germany). All cell lines were cultured in complete mediums prepared according to the ECACC recommendations and incubated in a humidified atmosphere with 5% CO2 at 37 °C. Neutral red uptake assay was performed according to the protocol. 24 h before treatment cells were seeded in 96-well plates in 1 × 10^5 cell/mL of complete medium. After incubation and attachment of cells, the medium was discarded, and test substances dissolved in the fresh medium were added to wells. Samples were tested after 24, 48, and 72 h incubation. A neutral red working solution (40 µg/mL) was prepared and incubated overnight. […] Absorption was measured using a Thermo Scientific™ (Waltham, MA, USA) Multiskan™ GO microplate spectrophotometer at 540 nm. […] Viability was calculated according to the following formula:(1) % Viability=ODtest substance−ODblind/ODnegative control−ODblind×100 Neutral red uptake assay was performed in quadruple (n = 4). Results were calculated to mean ± standard deviation (SD) using Microsoft Office Excel 2007. […]

AGS cell line [7] = test: Annexin V/PI staining, flow cytometry; assay type: cell-based, human; settings: 24 h incubation
Procedure: A quantitative analysis of apoptosis was performed by flow cytometry with Alexa Fluor 488 annexin V and PI staining (Thermo Scientific Waltham, MA, USA). Briefly, 3 × 10^5 cells were seeded in 6-well plates. After overnight incubation, the tested compound was added to wells in 5 × IC50 concentration (250 µM). Cells were incubated and tested after 6, 12, 18, and 24 h, according to the manufacturer’s protocol. After incubation, cells were harvested, washed with PBS, and resuspended in 1× binding buffer to a final concentration of 1–5 × 10^6 cell/mL. Then 5 µL of Alexa Fluor 488-annexin V was added to 100 µL of cell suspension and incubated in the dark for 15 min. After incubation, the dye was removed, and cells were suspended in 1 mL of binding buffer. Directly before analysis, cells were incubated with 1 µL PI for 2 min and analyzed by flow cytometry (using CyFlow® Space flow cytometer and FloMax software).

AGS = test: Neutral red uptake assay, AGS; assay type: cell-based; settings: Homo sapiens, 72 h exposure
Procedure: as §1

[8] = Neutral red uptake assay, L-929 cell line (primary screening); assay type: cell-based, mouse; settings: mouse, L-929 cells, p < 0,05
Procedure: L-929 (mouse C3H/An connective tissue), Caco-2 (human colon adenocarcinoma), A172 (human glioblastoma), AGS (human gastric adenocarcinoma), HepaRG (human hepatoma cell), and HeLa (human cervix epithelioid carcinoma) cell lines were obtained from the European Collection of Authenticated Cell Cultures (ECACC) and provided by Sigma Aldrich/Merck (Munich, Germany). All cell lines were cultured in complete mediums prepared according to the ECACC recommendations and incubated in a humidified atmosphere with 5% CO2 at 37 °C. Neutral red uptake assay was performed according to the protocol. 24 h before treatment cells were seeded in 96-well plates in 1 × 10^5 cell/mL of complete medium. After incubation and attachment of cells, the medium was discarded, and test substances dissolved in the fresh medium were added to wells. Samples were tested after 24, 48, and 72 h incubation. A neutral red working solution (40 µg/mL) was prepared and incubated overnight. Immediately before use, it was centrifuged to remove any dye crystals. The medium from wells was aspirated, and 100 µL of neutral red was added to plates and incubated for at least 2 h in 37 °C and 5% CO2 in a humidified atmosphere. To inspect the absorption of neutral red to the lysosomes, microscope visualizations were performed. After incubation, cells were washed with PBS, and destain solution containing ethanol, deionized water, and glacial acetic acid (50:49:1) was added. Plates were shaken rapidly on a horizontal shaker at 37 °C. Absorption was measured using a Thermo Scientific™ (Waltham, MA, USA) Multiskan™ GO microplate spectrophotometer at 540 nm. The negative control was a medium with 1% DMSO, and the positive control was 1 µM staurosporine. Viability was calculated according to the following formula:(1) % Viability=ODtest substance−ODblind/ODnegative control−ODblind×100 Neutral red uptake assay was performed in quadruple (n = 4). Results were calculated to mean ± standard deviation (SD) using Microsoft Office Excel 2007. The viability in negative control was compared to 100%. Statistical analyses were performed using the GraphPad Prism 8.3 for Windows (GraphPad Software, La Jolla, CA, USA, www.graphpad.com). For IC50 results, non-linear regression analyses were performed, and a sigmoidal dose-response curve (variable slope) was fitted. Differences between groups and control were tested using an ANOVA test followed by Dunnett’s post hoc analysis. The significance was set at p ≤ 0.05.

HeLa = test: Neutral red uptake assay, HeLa; assay type: cell-based; settings: Homo sapiens, 72 h exposure
Procedure: as §1

AGS cell line [9] = test: Comet assay (alkaline single-cell gel electrophoresis), DNA damage; assay type: cell-based, human; settings: 50 µM
Procedure: To evaluate DNA damage induced by incubation with 3, alkaline single-cell gel electrophoresis (comet assay) was performed. Cells were seeded in 12-well plates in a density of 1 × 10^5 cell/well. After overnight incubation, the tested compound in IC50 concentration (50 µM) was added. After incubation, cells were harvested, centrifuged, and resuspended in PBS. The cell suspension was mixed with 1% low melting point agarose and attached to the slide covered with 1% normal melting point agarose. Subsequently, slides were incubated in a buffer (pH 10.0) containing 2.5 M NaCl, 10 mM Tris-HCl buffer, 100 mM EDTA, and 1% Triton X-100 for 1 h. Then samples were transferred to alkaline electrophoresis buffer containing 0.3 M […] and 1mM EDTA for a 20 min incubation followed by electrophoresis performed at 25 V and 300 mA for 20 min. After electrophoresis, samples were incubated with a neutral pH buffer (0.4 M Tris-HCl, pH 7.5) for 10 min and washed with deionized water. After air-drying, samples were stained with Hoechst 33342 and visualized with a fluorescence microscope using a UV filter. The damages were visually scored from 100 randomly selected cells. […] Based on results, the damage index (DI) was calculated according to the following formula:(3) DI=0×n0+1×n1+2×n2+3×n3+4×n4, where n stands for the amount of each class.

AGS cell line [10] = test: Flow cytometry viability, FDA/PI double staining; assay type: cell-based, human
Procedure: The flow cytometry analysis was performed to determine cell viability after treatment with a compound showing high proliferation inhibition in neutral red uptake assay. The test is based on FDA’s ability to pass through an intact cell membrane, where it can be hydrolyzed by cytoplasmic esterases to fluorescein, a bright green fluorophore. The protocol was based on a double-staining procedure with FDA and PI [75]. For stock solutions, FDA was dissolved in DMSO and PI in H2O to 1 mM concentrations. Cells were seeded in a 6-well plate with a density of 1 × 10^5 cell/well and maintained at 37 °C under 5% CO2 in a humidified atmosphere. After overnight incubation, cells were treated with a compound diluted to the following concentrations: 100, 80, 40, 10, and 1 µM. Flow cytometry analyses were performed after 24, 48, and 72 h incubation. For the analysis, both floating and adherent cells were collected, centrifuged at 1600 rpm, and washed with PBS. Cells were stained with FDA with a final concentration of 1 µM in PBS, and kept in the dark for 15 min. After incubation, cells were centrifuged, resuspended in ice-cold PBS, and kept on ice until analysis. Directly before testing, samples were stained with a 1 µM PI solution for 2 min. The acquisition was performed with a CyFlow® space flow cytometer, and data analyses were performed using the FloMax software (Partec, Münster, Germany). The percentage of viable cells was calculated based on FDA absorption according to the following formula:(2) % ViabilityFDA=% live cells under experimental conditions/% live cells from negative control×100

HepaRG = test: Neutral red uptake assay, HepaRG; assay type: cell-based; settings: Homo sapiens, 72 h exposure
Procedure: as §1

[11] = Enterococcus faecalis ATCC 29212, range tested 1024 to 1 ug/mL

Compound: CN[C@@H]1C[C@H]2O[C@@](C)([C@@H]1OC)n1c3ccccc3c3c4c(c5c6ccccc6n2c5c31)C(=O)NC4 [staurosporine, reference compound]
cell and nucleus morphology (AGS cell line [1]; positive control, 1 µM): Shrunken cells’ bodies and fragmented DNA

MIC [2]: 1 µg/mL (≈ 2.77 µM)
MIC ([3]; Enterococcus faecalis, ATCC29212, Enterococcus faecalis 29212, according to the EUCAST examination, read-out: MIC (reference agent)): 4 µg/mL (≈ 11.1 µM)
MIC [4]: 0.001 µg/mL (≈ 0.00277 µM)
MIC [5]: 1 µg/mL (≈ 2.77 µM)
MIC [6]: 0.5 µg/mL (≈ 1.38 µM)
Compound: C[C@H]1COc2c(N3CCN(C)CC3)c(F)cc3c(=O)c(C(=O)O)cn1c23 [levofloxacin]

MIC [3, 11]: 16 µg/mL (≈ 37.5 µM)
MIC ([3]; Enterococcus faecalis, ATCC29212, Enterococcus faecalis ATCC 29212, range tested 1024 to 1 ug/mL, read-out: MIC): 32 µg/mL (≈ 75 µM)
IC50 (AGS): 50.2 µM
IC50 (HeLa): 355 µM
IC50 (AGS cell line [10]; Homo sapiens, referred to control with 1% DMSO): 53 µM
Compound: CCOc1ccc(N=Cc2c(C)nc(-c3ccccc3)nc2Nc2ccc(F)cc2)cc1 [Compound 3, 5-[(4-ethoxyphenyl)imino]methyl-N-(4-fluorophenyl)-6-methyl-2-phenylpyrimidin-4-amine]
MBC [3, 11]: 32 µg/mL (≈ 75 µM)
MBC ([3]; Enterococcus faecalis, ATCC29212, Enterococcus faecalis ATCC 29212, range tested 1024 to 1 ug/mL, read-out: MBC): 16 µg/mL (≈ 37.5 µM)
IC50 (A172): 526 µM
necrotic cells (stained with PI only) (AGS cell line [7]; 250 µM, control 0.71%): 2.22%
late apoptotic cells (double-stained) (AGS cell line [7]; 250 µM, control 2.48%): 21.58%
early apoptotic cells (annexin V stained) (AGS cell line [7]; 250 µM, control 3.24%): 16.18%
viability at 250 µM (AGS cell line [7]; Homo sapiens, control 93.57%, read-out: viable cells (unstained)): 60%
cell and nucleus morphology (AGS cell line [1]; 50 µM, 72 h): broke apart into apoptotic bodies
viability at 250 µM ([8]; L-929, 250 µM): 115%
viability at 500 µM ([8]; L-929, 500 µM): 111%
viability at 1000 µM ([8]; L-929, 1000 µM): 115%
DNA damage index (DI) (AGS cell line [9]; 48 h, control 52): 183
DNA damage index (DI) (AGS cell line [9]; 72 h, control 20): 259
cells in Q3 (unstained) (AGS cell line [10]; 100 µM): 43.72%
cells in Q4 (PI stained, dead) (AGS cell line [10]; 100 µM): 35.76%
viability at 1 µM (AGS cell line [10]; Homo sapiens, 1 µM, read-out: cells in Q1 (FDA stained, viable)): 81.5%
viability at 10 µM (AGS cell line [10]; Homo sapiens, 10 µM, read-out: cells in Q1 (FDA stained, viable)): 66.4%
viability at 40 µM (AGS cell line [10]; Homo sapiens, 40 µM, read-out: cells in Q1 (FDA stained, viable)): 62.4%
viability at 80 µM (AGS cell line [10]; Homo sapiens, 80 µM, read-out: cells in Q1 (FDA stained, viable)): 41.8%
viability at 100 µM (AGS cell line [10]; Homo sapiens, 100 µM, read-out: cells in Q1 (FDA stained, viable)): 20.2%
IC50 (HepaRG): 313 µM
